Results from US9993423B2, “Microneedle deposition method” (COSMED PHARMACEUTICAL CO., LTD., priority 2011, dated 2018).

Tested on: diabetes model rats created by administration of streptozotocin
Test: Blood glucose level measurement test after insulin administration
Format: in vivo, rat
Details: 0.5, 1 and 2 hours, fasted diabetes model rats, FIG. 2
Method: Insulin was transdermally administered to rats using the manufactured microneedle array.
In diabetes model rats created by administration of streptozotocin (Body weight: about 300 g), their abdomens were dehaired. After these rats were fasted for 14 hours or longer, the microneedle array was inserted to the dehaired skin and fixed to the skin by YU-KI BAN (NITTO MEDICAL CORPORATION). Blood was sampled 0.5, 1 and 2 hours after administration of the microneedle array, and the blood glucose levels were measured. For measurement of the blood glucose levels, Glucose CII-test kit (Wako Pure Chemical Industries, Ltd.) was used. The tests were conducted in four cases.
Insulin was subcutaneously injected to rats.
After the diabetes model rats were fasted for 14 hours or longer, 0.25 units of insulin were subcutaneously injected. Blood was sampled 0.5, 1 and 2 hours after administration of insulin, and the blood glucose levels were measured. For measurement of the blood glucose levels, Glucose CII-test kit was used like Example 1. […]. The tests were conducted in four cases.
As a standard of the blood glucose level measurement test, a control (no insulin) was measured.
After the diabetes model rats were fasted for 14 hours or longer, blood was sampled 0.5, 1 and 2 hours later, and the blood glucose levels were measured. […]

insulin: Bovine insulin (NACALAI TESQUE), given on hyaluronic acid microneedle array tips (0.25 unit per array) or by subcutaneous injection
blood glucose level (relative value, time zero = 100) (microneedle array, 0.25 unit insulin, transdermal on dehaired abdomen): lowered | blood glucose level (relative value, time zero = 100) (subcutaneous injection, 0.25 units of insulin): lowered
